# Measurements as given in ChEMBL document CHEMBL3621142, “Discovery and Evaluation of Clinical Candidate AZD3759, a Potent, Oral Active, Central Nervous System-Penetrant, Epidermal Growth Factor Receptor Tyrosine Kinase Inhibitor” (J Med Chem, 2015).
# The source made the active and inactive calls. The calls are words filed in the database; no cut-off is given here.
# Experiments:
# [1] = Fraction unbound in Han Wistar rat blood at 5 uM by equilibrium dialysis method; type: ADME, tissue-based; settings: Han Wistar
# [2] = Fraction unbound in Han Wistar rat brain at 5 uM by equilibrium dialysis method; type: ADME, tissue-based; settings: Han Wistar, brain
# [3] = Elimination half life in Han Wistar rat at 2 mg/kg, po; type: ADME, organism-based; settings: in vivo, read-out: beta t1/2 (converted)
# [4] = Oral bioavailability in Han Wistar rat at 2 mg/kg; type: ADME, organism-based; settings: Han Wistar, in vivo
# [5] = AUC (0 to 7 hrs) in Han Wistar rat brain at 2 mg/kg, po by LC-MS/MS analysis; type: ADME, organism-based; set-up: dose 2 mg/kg, time < 7 hr, route oral; settings: Han Wistar, brain
# [6] = AUC (0 to 7 hrs) in Han Wistar rat CSF at 2 mg/kg, po by LC-MS/MS analysis; type: ADME, organism-based, Cerebrospinal fluid; set-up: time < 7 hr, dose 2 mg/kg, route oral; settings: Han Wistar, CSF
# [7] = AUC (0 to 7 hrs) in Han Wistar rat blood at 2 mg/kg, po by LC-MS/MS analysis; type: ADME, organism-based; set-up: dose 2 mg/kg, time < 7 hr, route oral; settings: Han Wistar, blood
# [8] = Ratio of unbound AUC (0 to 7 hrs) in brain to blood of Han Wistar rat at 2 mg/kg, po by LC-MS/MS analysis; type: ADME, organism-based; settings: Han Wistar, brain and blood, read-out: K(p,uu,brain)
# [9] = Ratio of unbound AUC (0 to 7 hrs) in CSF to blood of Han Wistar rat at 2 mg/kg, po by LC-MS/MS analysis; type: ADME, organism-based; settings: Han Wistar, CSF and blood
# [10] = Elimination half life in Han Wistar rat at 1 mg/kg, iv; type: ADME, organism-based; settings: Han Wistar, in vivo, read-out: beta t1/2 (converted)
# [11] = Clearance in Han Wistar rat at 1 mg/kg, iv; type: ADME, organism-based; settings: in vivo
# [12] = Volume of distribution at steady state in Han Wistar rat at 1 mg/kg, iv; type: ADME, organism-based; settings: Han Wistar, in vivo, read-out: Vdss
# [13] = AUC(0 to 24 hrs) in Han Wistar rat at 2 mg/kg, po; type: ADME, organism-based; set-up: dose 2 mg/kg, time < 24 hr, route oral; settings: Han Wistar, in vivo
# Hepatocyte = experiment: Intrinsic clearance in human hepatocytes; type: ADME, cell-based
# [14] = Cmax in Han Wistar rat at 2 mg/kg, po at 1 hr; type: ADME, organism-based; set-up: dose 2 mg/kg, route oral; settings: in vivo
# [15] = Antiproliferative against human PC9 cells expressing EGFR exon19 deletion mutant after 72 hrs by MTS assay; type: functional, cell-based; settings: PC-9, 72 h
# [16] = Antiproliferative against human H3255 cells expressing EGFR L858R mutant after 72 hrs by MTS assay; type: functional, cell-based; settings: NCI-H3255, 72 h
# NCI-H838 = experiment: Antiproliferative against human NCI-H838 cells expressing EGFR wild-type after 72 hrs by MTS assay; type: functional, cell-based; settings: NCI-H838, 72 h
# [17] = target: Ephrin type-B receptor 4 (Homo sapiens) (UniProt P54760); experiment: Inhibition of recombinant EpHB4 (unknown origin) at 1 uM after 40 mins by scintillation counting analysis in presence of [gamma33P]-ATP
# [18] = target: Vascular endothelial growth factor receptor 1 (Homo sapiens) (UniProt P17948); experiment: Inhibition of recombinant Flt (unknown origin) at 1 uM after 40 mins by scintillation counting analysis in presence of [gamma33P]-ATP
# [19] = target: Tyrosine-protein kinase Fyn (Homo sapiens) (UniProt P06241); experiment: Inhibition of recombinant Fyn (unknown origin) at 1 uM after 40 mins by scintillation counting analysis in presence of [gamma33P]-ATP
# [20] = target: T1, Vascular endothelial growth factor receptor 2 (Homo sapiens, UniProt P35968); experiment: Inhibition of recombinant KDR (unknown origin) at 1 uM after 40 mins by scintillation counting analysis in presence of [gamma33P]-ATP
# [21] = target: Tyrosine-protein kinase Lck (Homo sapiens) (UniProt P06239); experiment: Inhibition of recombinant Lck (unknown origin) at 1 uM after 40 mins by scintillation counting analysis in presence of [gamma33P]-ATP
# [22] = target: Tyrosine-protein kinase Lyn (Homo sapiens) (UniProt P07948); experiment: Inhibition of recombinant Lyn (unknown origin) at 1 uM after 40 mins by scintillation counting analysis in presence of [gamma33P]-ATP
# [23] = target: T2, Proto-oncogene tyrosine-protein kinase Src (Homo sapiens, UniProt P12931); experiment: Inhibition of recombinant Src (unknown origin) at 1 uM after 40 mins by scintillation counting analysis in presence of [gamma33P]-ATP
# [24] = target: Tyrosine-protein kinase Yes (Homo sapiens) (UniProt P07947); experiment: Inhibition of recombinant Yes (unknown origin) at 1 uM after 40 mins by scintillation counting analysis in presence of [gamma33P]-ATP
# [25] = target: T1, Vascular endothelial growth factor receptor 2; experiment: Inhibition of recombinant KDR (unknown origin) after 40 mins by scintillation counting analysis in presence of [gamma33P]-ATP
# [26] = target: T2, Proto-oncogene tyrosine-protein kinase Src; experiment: Inhibition of recombinant Src (unknown origin) after 40 mins by scintillation counting analysis in presence of [gamma33P]-ATP
# D(2) dopamine receptor = D(2) dopamine receptor (Homo sapiens, UniProt P14416); experiment: Inhibition of recombinant D2 receptor (unknown origin)
# Cytochrome P450 1A2 = Cytochrome P450 1A2 (Homo sapiens, UniProt P05177); experiment: Inhibition of CYP1A2 (unknown origin); type: ADME
# Cytochrome P450 2B6 = Cytochrome P450 2B6 (Homo sapiens, UniProt P20813); experiment: Inhibition of CYP2B6 (unknown origin); type: ADME
# Cytochrome P450 2C8 = Cytochrome P450 2C8 (Homo sapiens, UniProt P10632); experiment: Inhibition of CYP2C8 (unknown origin); type: ADME
# Cytochrome P450 2C9 = Cytochrome P450 2C9 (Homo sapiens, UniProt P11712); experiment: Inhibition of CYP2C9 (unknown origin); type: ADME
# Cytochrome P450 2C19 = Cytochrome P450 2C19 (Homo sapiens, UniProt P33261); experiment: Inhibition of CYP2C19 (unknown origin); type: ADME
# Cytochrome P450 2D6 = Cytochrome P450 2D6 (Homo sapiens, UniProt P10635); experiment: Inhibition of CYP2D6 (unknown origin); type: ADME
# Cytochrome P450 3A4 = Cytochrome P450 3A4 (Homo sapiens, UniProt P08684); experiment: Inhibition of CYP3A4 (unknown origin); type: ADME
# Cytochrome P450 3A5 = Cytochrome P450 3A5 (Homo sapiens, UniProt P20815); experiment: Inhibition of CYP3A5 (unknown origin); type: ADME
# [27] = AUC(0 to 24 hrs) in beagle dog at 1 mg/kg, iv; type: ADME, organism-based, Canis lupus familiaris; set-up: dose 1 mg/kg, time < 24 hr, route intravenous; settings: in vivo
# [28] = Permeability from apical to basolateral side in MDCK2-MDR1 cells; type: ADME, cell-based, Canis lupus familiaris, MDCK-II; settings: dog, MDCK-MDR1
# [29] = Elimination half life in beagle dog at 1 mg/kg, iv; type: ADME, organism-based, Canis lupus familiaris; settings: in vivo, read-out: beta t1/2 (converted)
# [30] = Clearance in beagle dog at 1 mg/kg, iv; type: ADME, organism-based, Canis lupus familiaris; settings: in vivo
# [31] = Volume of distribution at steady state in beagle dog at 1 mg/kg, iv; type: ADME, organism-based, Canis lupus familiaris; settings: in vivo, read-out: Vdss
# [32] = AUC(0 to 24 hrs) in beagle dog at 2 mg/kg, po; type: ADME, organism-based, Canis lupus familiaris; set-up: dose 2 mg/kg, time < 24 hr, route oral; settings: in vivo
# [33] = Elimination half life in beagle dog at 2 mg/kg, po; type: ADME, organism-based, Canis lupus familiaris; settings: in vivo, read-out: beta t1/2 (converted)
# [34] = Oral bioavailability in beagle dog at 2 mg/kg; type: ADME, organism-based, Canis lupus familiaris; settings: in vivo
# [35] = Tmax in beagle dog at 2 mg/kg, po; type: ADME, organism-based, Canis lupus familiaris; settings: in vivo
# [36] = Cmax in beagle dog at 2 mg/kg, po; type: ADME, organism-based, Canis lupus familiaris; set-up: dose 2 mg/kg, route oral; settings: in vivo
# [37] = Ratio of fraction unbound in brain to plasma of cynomolgus monkey at 150 MBq, iv by positron emission tomography; type: ADME, organism-based, Macaca fascicularis
# [38] = Ratio of fraction unbound in brain to plasma of cynomolgus monkey at 155 MBq, iv by positron emission tomography; type: ADME, organism-based, Macaca fascicularis
# PC-9 [39] = experiment: Antitumor activity against human PC9 cells expressing EGFR exon19 deletion mutant xenografted in mouse measured after 4 weeks; type: functional, cell-based
# [40] = Antitumor activity against human PC9 cells expressing EGFR exon19 deletion mutant xenografted in mouse assessed as tumor growth inhibition at 7.5 mg/kg, qd measured after 4 weeks; type: functional; settings: PC-9, 672 h
# PC-9 [41] = experiment: Antitumor activity against human PC9 cells expressing EGFR exon19 deletion mutant xenografted in mouse assessed as tumor regression at 15 mg/kg, qd measured after 4 weeks; type: functional, organism-based
# Mus musculus [42] = experiment: Toxicity in PC9 cells expressing EGFR exon19 deletion mutant xenografted mouse assessed as loss of body weight at 7.5 mg/kg, qd; type: organism-based, PC-9; settings: in vivo
# Mus musculus [43] = experiment: Toxicity in PC9 cells expressing EGFR exon19 deletion mutant xenografted mouse assessed as loss of body weight at 15 mg/kg, qd; type: organism-based, PC-9; settings: in vivo
# PC-9 [44] = experiment: Antitumor activity against human PC9 cells expressing EGFR exon19 deletion mutant xenografted in mouse assessed as decrease in tumor area in brain at 7.5 mg/kg, qd; type: functional, organism-based
# PC-9 [45] = experiment: Antitumor activity against human PC9 cells expressing EGFR exon19 deletion mutant xenografted in mouse assessed as decrease in tumor area in brain at 15 mg/kg, qd; type: functional, organism-based
# PC-9 [46] = experiment: Antitumor activity against human PC9 cells expressing EGFR exon19 deletion mutant xenografted in mouse assessed as modulation of pEGFR expression in brain at 15 mg/kg administered as single dose measured after 1 hr by immunohistochemical analysis; type: functional, organism-based
# T2 sequence (P12931 2-536 limits assumed): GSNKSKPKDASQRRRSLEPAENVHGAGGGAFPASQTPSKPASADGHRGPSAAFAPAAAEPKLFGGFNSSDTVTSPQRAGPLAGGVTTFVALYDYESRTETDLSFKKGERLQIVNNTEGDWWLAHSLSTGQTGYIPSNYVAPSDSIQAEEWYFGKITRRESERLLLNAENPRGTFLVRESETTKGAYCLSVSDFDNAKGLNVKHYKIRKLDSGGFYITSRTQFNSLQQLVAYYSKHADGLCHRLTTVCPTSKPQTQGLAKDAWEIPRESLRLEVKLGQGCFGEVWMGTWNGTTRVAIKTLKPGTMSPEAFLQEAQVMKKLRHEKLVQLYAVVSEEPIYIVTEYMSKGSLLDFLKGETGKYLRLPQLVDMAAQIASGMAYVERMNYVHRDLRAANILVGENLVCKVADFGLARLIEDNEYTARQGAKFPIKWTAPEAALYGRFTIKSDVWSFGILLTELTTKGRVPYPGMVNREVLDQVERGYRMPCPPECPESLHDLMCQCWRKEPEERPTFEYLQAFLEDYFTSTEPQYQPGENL
# T1 sequence (P35968 whole entry): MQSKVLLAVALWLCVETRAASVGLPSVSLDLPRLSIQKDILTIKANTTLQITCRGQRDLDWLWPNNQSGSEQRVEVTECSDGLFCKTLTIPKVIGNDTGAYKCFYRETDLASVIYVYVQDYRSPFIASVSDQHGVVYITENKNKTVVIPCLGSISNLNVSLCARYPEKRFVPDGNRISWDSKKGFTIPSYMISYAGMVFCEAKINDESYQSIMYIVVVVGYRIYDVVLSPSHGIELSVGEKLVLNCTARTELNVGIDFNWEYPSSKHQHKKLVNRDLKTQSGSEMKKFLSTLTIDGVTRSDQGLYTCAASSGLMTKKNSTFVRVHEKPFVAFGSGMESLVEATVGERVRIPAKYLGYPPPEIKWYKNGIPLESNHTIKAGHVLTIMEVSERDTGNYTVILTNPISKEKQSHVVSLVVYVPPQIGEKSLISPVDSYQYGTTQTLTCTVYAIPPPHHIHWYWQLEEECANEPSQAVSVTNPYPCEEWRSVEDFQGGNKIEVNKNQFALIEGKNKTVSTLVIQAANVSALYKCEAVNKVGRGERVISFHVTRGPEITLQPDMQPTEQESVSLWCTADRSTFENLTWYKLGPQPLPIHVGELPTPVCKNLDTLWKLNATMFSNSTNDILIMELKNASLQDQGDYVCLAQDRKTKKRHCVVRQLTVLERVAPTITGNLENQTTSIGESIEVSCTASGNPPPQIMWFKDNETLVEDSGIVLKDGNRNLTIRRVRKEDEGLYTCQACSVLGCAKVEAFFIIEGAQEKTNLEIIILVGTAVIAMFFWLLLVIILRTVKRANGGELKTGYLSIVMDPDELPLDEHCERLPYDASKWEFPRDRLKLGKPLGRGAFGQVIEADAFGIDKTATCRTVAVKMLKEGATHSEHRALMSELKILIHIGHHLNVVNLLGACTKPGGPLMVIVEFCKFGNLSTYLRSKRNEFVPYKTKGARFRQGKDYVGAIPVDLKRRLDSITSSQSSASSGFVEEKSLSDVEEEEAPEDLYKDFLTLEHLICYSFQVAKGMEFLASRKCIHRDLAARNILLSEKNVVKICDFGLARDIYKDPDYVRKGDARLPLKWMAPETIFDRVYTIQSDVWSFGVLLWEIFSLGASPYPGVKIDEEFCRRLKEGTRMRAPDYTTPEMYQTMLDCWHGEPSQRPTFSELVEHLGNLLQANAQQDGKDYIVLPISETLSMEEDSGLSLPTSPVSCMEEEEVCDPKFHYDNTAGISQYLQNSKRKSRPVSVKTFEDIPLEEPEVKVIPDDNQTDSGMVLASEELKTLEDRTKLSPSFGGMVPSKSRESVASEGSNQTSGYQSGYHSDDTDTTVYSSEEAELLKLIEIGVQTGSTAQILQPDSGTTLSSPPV
# Chain of Cytochrome P450 3A5 (P20815 whole entry): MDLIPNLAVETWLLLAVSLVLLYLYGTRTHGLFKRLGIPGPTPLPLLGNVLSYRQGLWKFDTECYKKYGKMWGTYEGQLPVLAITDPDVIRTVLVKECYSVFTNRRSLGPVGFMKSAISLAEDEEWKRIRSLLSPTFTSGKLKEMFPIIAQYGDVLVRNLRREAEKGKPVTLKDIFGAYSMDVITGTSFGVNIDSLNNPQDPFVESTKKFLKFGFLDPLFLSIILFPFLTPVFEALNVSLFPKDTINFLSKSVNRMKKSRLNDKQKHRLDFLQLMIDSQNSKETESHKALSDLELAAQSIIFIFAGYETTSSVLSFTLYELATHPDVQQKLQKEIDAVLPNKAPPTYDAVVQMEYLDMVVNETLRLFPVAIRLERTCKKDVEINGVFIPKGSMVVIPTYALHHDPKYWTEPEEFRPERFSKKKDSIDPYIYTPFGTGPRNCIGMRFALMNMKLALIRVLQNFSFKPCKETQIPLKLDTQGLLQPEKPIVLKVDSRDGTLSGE
# Chain of Cytochrome P450 3A4 (P08684 whole entry): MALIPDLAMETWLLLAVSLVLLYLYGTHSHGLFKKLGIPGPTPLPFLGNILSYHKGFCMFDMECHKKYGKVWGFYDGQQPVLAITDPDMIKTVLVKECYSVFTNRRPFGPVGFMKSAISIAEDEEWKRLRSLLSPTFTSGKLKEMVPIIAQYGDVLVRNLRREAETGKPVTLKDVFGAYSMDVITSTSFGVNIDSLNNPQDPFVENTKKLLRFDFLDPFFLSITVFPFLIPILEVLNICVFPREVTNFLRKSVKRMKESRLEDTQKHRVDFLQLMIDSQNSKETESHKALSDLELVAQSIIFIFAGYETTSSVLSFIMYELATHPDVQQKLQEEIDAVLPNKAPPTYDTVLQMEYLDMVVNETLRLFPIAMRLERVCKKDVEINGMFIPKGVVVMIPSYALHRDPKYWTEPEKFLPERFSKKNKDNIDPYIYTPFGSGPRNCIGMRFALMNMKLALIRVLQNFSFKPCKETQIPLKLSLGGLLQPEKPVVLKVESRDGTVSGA
# Chain of Cytochrome P450 2B6 (P20813 whole entry): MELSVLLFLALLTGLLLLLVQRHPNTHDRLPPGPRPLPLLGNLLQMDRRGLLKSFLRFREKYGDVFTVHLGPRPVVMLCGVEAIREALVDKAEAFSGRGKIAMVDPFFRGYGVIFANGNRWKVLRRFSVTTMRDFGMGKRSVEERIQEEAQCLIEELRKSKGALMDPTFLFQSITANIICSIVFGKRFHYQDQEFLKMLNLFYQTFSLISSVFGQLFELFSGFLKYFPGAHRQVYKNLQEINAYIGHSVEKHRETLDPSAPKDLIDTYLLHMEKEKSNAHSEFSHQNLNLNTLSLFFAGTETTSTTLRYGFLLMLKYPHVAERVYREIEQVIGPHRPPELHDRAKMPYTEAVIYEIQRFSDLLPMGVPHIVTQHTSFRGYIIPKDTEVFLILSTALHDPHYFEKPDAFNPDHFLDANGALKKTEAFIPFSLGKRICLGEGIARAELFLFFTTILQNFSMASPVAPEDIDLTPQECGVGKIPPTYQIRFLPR
# Chain of D(2) dopamine receptor (P14416 whole entry): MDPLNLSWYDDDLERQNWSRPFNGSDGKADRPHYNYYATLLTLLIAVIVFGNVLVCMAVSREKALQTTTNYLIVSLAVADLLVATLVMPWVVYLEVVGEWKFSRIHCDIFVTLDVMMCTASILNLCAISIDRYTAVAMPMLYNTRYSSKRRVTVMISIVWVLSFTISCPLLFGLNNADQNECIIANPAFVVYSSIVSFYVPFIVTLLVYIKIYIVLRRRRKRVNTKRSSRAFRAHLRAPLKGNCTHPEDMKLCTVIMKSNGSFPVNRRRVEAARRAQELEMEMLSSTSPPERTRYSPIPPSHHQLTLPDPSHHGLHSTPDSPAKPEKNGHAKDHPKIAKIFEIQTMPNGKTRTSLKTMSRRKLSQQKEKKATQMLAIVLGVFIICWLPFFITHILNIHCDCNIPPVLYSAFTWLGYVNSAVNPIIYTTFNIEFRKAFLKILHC
# Chain of Cytochrome P450 2C9 (P11712 whole entry): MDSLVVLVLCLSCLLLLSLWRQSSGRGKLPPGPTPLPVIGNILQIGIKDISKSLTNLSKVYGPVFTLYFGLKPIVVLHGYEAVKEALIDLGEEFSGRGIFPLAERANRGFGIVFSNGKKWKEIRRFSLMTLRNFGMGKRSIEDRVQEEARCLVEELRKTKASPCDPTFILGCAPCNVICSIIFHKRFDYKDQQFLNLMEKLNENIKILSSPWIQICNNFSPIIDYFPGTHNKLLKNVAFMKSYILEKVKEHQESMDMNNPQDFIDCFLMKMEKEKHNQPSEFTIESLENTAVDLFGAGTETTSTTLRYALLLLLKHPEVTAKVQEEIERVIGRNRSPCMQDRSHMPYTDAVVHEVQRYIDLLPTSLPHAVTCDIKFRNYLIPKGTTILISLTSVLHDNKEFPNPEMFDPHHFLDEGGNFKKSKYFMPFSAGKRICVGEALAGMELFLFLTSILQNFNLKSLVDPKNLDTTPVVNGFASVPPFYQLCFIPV
# Chain of Tyrosine-protein kinase Fyn (Homo sapiens) (P06241 2-537 limits assumed): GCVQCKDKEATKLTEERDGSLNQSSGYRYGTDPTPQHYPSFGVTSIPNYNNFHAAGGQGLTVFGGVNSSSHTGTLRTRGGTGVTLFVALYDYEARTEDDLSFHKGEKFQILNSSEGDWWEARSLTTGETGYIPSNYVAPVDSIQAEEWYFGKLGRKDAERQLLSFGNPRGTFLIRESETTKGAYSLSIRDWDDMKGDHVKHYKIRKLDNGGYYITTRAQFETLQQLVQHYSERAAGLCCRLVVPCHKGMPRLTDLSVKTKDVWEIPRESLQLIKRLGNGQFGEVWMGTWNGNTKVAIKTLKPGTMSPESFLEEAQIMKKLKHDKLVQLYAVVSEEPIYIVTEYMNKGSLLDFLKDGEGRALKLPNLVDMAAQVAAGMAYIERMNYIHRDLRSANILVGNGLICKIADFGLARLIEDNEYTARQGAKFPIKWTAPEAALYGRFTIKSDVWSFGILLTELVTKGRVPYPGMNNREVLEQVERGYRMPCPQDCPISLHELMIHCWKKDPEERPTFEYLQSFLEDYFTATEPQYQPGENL
structure (smiles),measurement,setting,value
COc1cc2ncnc(Nc3cccc(Cl)c3F)c2cc1OC(=O)N1CCN(C)C[C@H]1C [AZD-3759],fraction unbound at 5 µM,[1],0.047
same,fraction unbound at 5 µM,[2],0.02
same,half-life,[3],4.3 h
same,bioavailability,[4],91%
same,AUC(0-t) at 7 h,[5],3.69 µM·h
same,AUC(0-t) at 7 h,[6],0.076 µM·h
same,AUC(0-t) at 7 h,[7],1.23 µM·h
same,Kp uu,[8],1.3
same,Kp uu,[9],1.3
same,half-life,[10],4.1 h
same,clearance,[11],17 mL/min/kg
same,Vd,[12],5.2 L/kg
same,AUC(0-t) at 24 h,[13],3.8 µM·h
same,CLH,Hepatocyte,11.4 µL/min
same,Cmax,[14],580 nM
same,IC50,[15],0.0077 µM
same,IC50,[16],0.007 µM
same,IC50,NCI-H838,21.6 µM
same,inhibition,[17],83%
same,inhibition,[18],57%
same,inhibition,[19],58%
same,inhibition,[20],62%
same,inhibition,[21],61%
same,inhibition,[22],74%
same,inhibition,[23],69%
same,inhibition,[24],87%
same,IC50,[25],0.156 µM
same,IC50,[26],0.622 µM
same,IC50,D(2) dopamine receptor,0.797 µM
same,IC50,Cytochrome P450 1A2,> 50 µM
same,IC50,Cytochrome P450 2B6,> 50 µM
same,IC50,Cytochrome P450 2C8,> 50 µM
same,IC50,Cytochrome P450 2C9,> 50 µM
same,IC50,Cytochrome P450 2C19,> 50 µM
same,IC50,Cytochrome P450 2D6,> 50 µM
same,IC50,Cytochrome P450 3A4,> 50 µM
same,IC50,Cytochrome P450 3A5,> 50 µM
same,AUC(0-t) at 24 h,[27],2.56 µM·h
same,Papp A→B,[28],36 ×10⁻⁶ cm/s
same,half-life,[29],6.2 h
same,clearance,[30],14 mL/min/kg
same,Vd,[31],6.4 L/kg
same,AUC(0-t) at 24 h,[32],4.62 µM·h
same,half-life,[33],5.5 h
same,bioavailability,[34],90.2%
same,Tmax,[35],0.5 h
same,Cmax,[36],698 nM
same,BPR,[37],0.5
same,BPR,[38],0.53
same,Activity,PC-9 [39],Dose-dependent effect
same,inhibition in vivo at 7.5 mg/kg,[40],78%
same,Activity,PC-9 [41],Active
same,Activity,Mus musculus [42],< 20%
same,Activity,Mus musculus [43],< 20%
same,inhibition,PC-9 [44],Active
same,inhibition,PC-9 [45],Active
same,Activity,PC-9 [46],Active
